Data as given in US11666558B2, “Methods of treating intraocular pressure with activators of Tie-2” (EyePoint Pharmaceuticals, Inc., priority 2015, dated 2023).
Where “and” joins values, the source holds several entries; their conditions need not be identical. Equal entries are not always repeated. Structures can show the parent of a compound that is named as a salt. Where two headings read alike, the source gives them in different places.

Test: Ocular tissue concentrations (aqueous humor, vitreous humor, iris, retina, choroid, cornea) after topical ocular, subcutaneous and intravitreal administration
Type: in vivo, New Zealand White rabbits
Conditions: for Average Peak Concentration, Vitreous Humor: solution
Procedure: To measure the concentration of Compound 1 in plasma and ocular tissues following topical ocular, subcutaneous, and intravitreal administration, New Zealand White rabbits were administered Compound 1, and plasma and ocular samples were collected at pre-determined time points. Compound 1 formulations were prepared fresh on each day of dosing.
Ocular tissue samples from both eyes of each animal were collected and weights were recorded. Plasma and ocular tissue sample concentrations of Compound 1 were determined by LC-MS/MS.
New Zealand White rabbits weighing 2.5 to 3.5 kg were used on this study. Rabbits were housed one per cage. Animals were not fasted and only healthy animals with no ocular illness were used. Two rabbits per group were sacrificed at each of four ocular tissue sampling time points for a total of eight rabbits per group.
Animals were anesthetized for ocular (topical) and intravitreal dosing following the 12IA7 IACUC protocol. Each rabbit received a bolus dose of test formulation either via topical ocular administration 3 times daily on Days 1 and 2 (at 0, 6, and 12 hours), and once on Day 3 (at 0 hours) into both eyes; via intravitreal administration into both eyes once on Day 1 (at 0 hours); or via subcutaneous administration 2 times daily on Days 1 and 2 (at 0 and 8 hours) and once daily on Day 3 (at 0 hours). Doses were given within an approximately 1 hour window each day where applicable.
On Day 1, for intravitreal administration, or on Day 3, for topical ocular and subcutaneous administration, at the appropriate ocular tissue collection time points, animals were euthanized and both eyes were enucleated immediately. Following enucleation, each eye was rinsed with phosphate-buffered saline. Ocular tissue samples from both eyes of each animal were collected at predetermined time points and weights were recorded. All the samples were frozen immediately on dry ice, and stored at −60° C. to −80° C. pending bioanalysis.
An LC-MS/MS method was developed for the determination of Compound 1 in rabbit aqueous tissues (plasma, aqueous and vitreous humor) and solid ocular tissue samples. A pre-study standard curve was analyzed to determine the specificity, range, and lower limit of quantitation of the method. Plasma and tissue homogenate study samples were extracted and analyzed. All the samples were treated identically to the standards.
One eight-point standard curve was used in each analytical batch. To be accepted, each batch must have had at least five of eight standards with accuracy within ±20% of nominal, except at the lower limit of quantification (LLOQ), where ±25% was acceptable.
Concentration versus time data is plotted in FIGS. 3-16. All data are expressed as ng/g of the free drug. Samples that were below the limit of quantitation (0.2 ng/mL) were not used in the calculation of averages.

[1] = Group 1 topical ocular 1.2 mg/eye, 2.0 hr
[2] = Group 1 topical ocular 1.2 mg/eye, 4.0 hr
[3] = Group 2 subcutaneous 5 mg/kg, 0.5 hr
[4] = Group 2 subcutaneous 5 mg/kg, 1.0 hr
[5] = Group 2 subcutaneous 5 mg/kg, 2.0 hr
[6] = Group 2 subcutaneous 5 mg/kg, 4.0 hr
[7] = Group 4 intravitreal 2.5 mg per eye, 6.0 hr
[8] = Group 4 intravitreal 2.5 mg per eye, 24 hr
[9] = Group 4 intravitreal 2.5 mg per eye, 48 hr
[10] = Group 4 intravitreal 2.5 mg per eye, 72 hr

## COC(=O)N[C@@H](Cc1ccccc1)C(=O)N[C@@H](Cc1ccc(NS(=O)(=O)O)cc1)c1csc(-c2cccs2)n1 [Compound 1 sodium salt]
Group 1 topical ocular 0.70 mg/kg/dose
  Average Peak Concentration, Vitreous Humor: 0.61 ng/g
Group 1 topical ocular 1.2 mg/eye, 0.5 hr
  aqueous humor Conc., individual eyes (OD, OS): 3.44 ng/mL and 1.78 ng/mL and 12.8 ng/mL
Group 1 topical ocular 1.2 mg/eye, 1.0 hr
  aqueous humor Conc., individual eyes (OD, OS): 3.55 ng/mL and 3.05 ng/mL
[1]
  aqueous humor Conc., individual eyes (OD, OS): 2.46 ng/mL and 14.5 ng/mL and 15.8 ng/mL
  vitreous humor Conc., individual eyes (OD, OS): 1.14 ng/mL and 0.950 ng/mL
[2]
  aqueous humor Conc., individual eyes (OD, OS): 5.48 ng/mL and 5.61 ng/mL and 7.78 ng/mL and 14.1 ng/mL
  vitreous humor Conc., individual eyes (OD, OS): 1.09 ng/mL and 2.20 ng/mL and 0.551 ng/mL
Group 2 subcutaneous 5 mg/kg/dose
  Average Peak Concentration, Vitreous Humor: 0.83 ng/g
[3]
  aqueous humor Conc., individual eyes (OD, OS): 23.5 ng/mL and 24.6 ng/mL and 18.0 ng/mL and 38.2 ng/mL
  vitreous humor Conc., individual eyes (OD, OS): 1.03 ng/mL and 0.537 ng/mL and 0.981 ng/mL
[4]
  aqueous humor Conc., individual eyes (OD, OS): 4.51 ng/mL and 1.84 ng/mL and 3.22 ng/mL and 3.63 ng/mL
  vitreous humor Conc., individual eyes (OD, OS): 0.252 ng/mL and 0.766 ng/mL and 0.442 ng/mL and 0.337 ng/mL
[5]
  aqueous humor Conc., individual eyes (OD, OS): 0.498 ng/mL and 0.453 ng/mL
  vitreous humor Conc., individual eyes (OD, OS): BLOQ (Below the limit of quantitation (0.2 ng/mL))
[6]
  aqueous humor Conc., individual eyes (OD, OS): BLOQ (Below the limit of quantitation (0.2 ng/mL))
  vitreous humor Conc., individual eyes (OD, OS): BLOQ (Below the limit of quantitation (0.2 ng/mL))
[7]
  aqueous humor Conc., individual eyes (OD, OS): 77100 ng/mL and 75300 ng/mL and 79300 ng/mL
  vitreous humor Conc., individual eyes (OD, OS): 1450000 ng/mL and 1480000 ng/mL and 432000 ng/mL
[8]
  aqueous humor Conc., individual eyes (OD, OS): 5190 ng/mL and 6810 ng/mL
  vitreous humor Conc., individual eyes (OD, OS): 295000 ng/mL and 406000 ng/mL and 259000 ng/mL
[9]
  aqueous humor Conc., individual eyes (OD, OS): 1510 ng/mL and 2330 ng/mL and 1970 ng/mL
  vitreous humor Conc., individual eyes (OD, OS): 82300 ng/mL and 68600 ng/mL and 91900 ng/mL
[10]
  aqueous humor Conc., individual eyes (OD, OS): 23.2 ng/mL and 16.1 ng/mL and 49.7 ng/mL and 49.0 ng/mL
  vitreous humor Conc., individual eyes (OD, OS): 13500 ng/mL and 11700 ng/mL and 14100 ng/mL
New Zealand White, rabbit, aqueous humor, other: intravitreal, 2.5 mg per eye, Group 4 intravitreal 2.5 mg per eye, 6.0 hr, read-out: aqueous humor Average Conc.
  concentration at 6 hr: 80600 ng/g
New Zealand White, rabbit, aqueous humor, other: intravitreal, 2.5 mg per eye, Group 4 intravitreal 2.5 mg per eye, 6.0 hr, read-out: aqueous humor Conc., individual eyes (OD, OS)
  concentration at 6 hr: 90600 ng/mL
New Zealand White, rabbit, aqueous humor, other: intravitreal, 2.5 mg per eye, Group 4 intravitreal 2.5 mg per eye, 24 hr, read-out: aqueous humor Average Conc.
  concentration at 24 hr: 9000 ng/g
New Zealand White, rabbit, aqueous humor, other: intravitreal, 2.5 mg per eye, Group 4 intravitreal 2.5 mg per eye, 24 hr, read-out: aqueous humor Conc., individual eyes (OD, OS)
  concentration at 24 hr: 4700 ng/mL
New Zealand White, rabbit, aqueous humor, other: intravitreal, 2.5 mg per eye, Group 4 intravitreal 2.5 mg per eye, 48 hr, read-out: aqueous humor Average Conc.
  concentration at 48 hr: 1960 ng/g
New Zealand White, rabbit, aqueous humor, other: intravitreal, 2.5 mg per eye, Group 4 intravitreal 2.5 mg per eye, 48 hr, read-out: aqueous humor Conc., individual eyes (OD, OS)
  concentration at 48 hr: 2040 ng/mL
New Zealand White, rabbit, aqueous humor, other: intravitreal, 2.5 mg per eye, Group 4 intravitreal 2.5 mg per eye, 72 hr, read-out: aqueous humor Average Conc.
  concentration at 72 hr: 34.5 ng/g
New Zealand White, rabbit, aqueous humor, subcutaneous, 5 mg/kg, Group 2 subcutaneous 5 mg/kg, 0.5 hr, read-out: aqueous humor Average Conc.
  concentration at 0.5 h: 26.1 ng/g
New Zealand White, rabbit, aqueous humor, subcutaneous, 5 mg/kg, Group 2 subcutaneous 5 mg/kg, 1.0 hr, read-out: aqueous humor Average Conc.
  concentration at 1 h: 3.3 ng/g
New Zealand White, rabbit, aqueous humor, subcutaneous, 5 mg/kg, Group 2 subcutaneous 5 mg/kg, 2.0 hr, read-out: aqueous humor Average Conc.
  concentration at 2 h: 0.72 ng/g
New Zealand White, rabbit, aqueous humor, subcutaneous, 5 mg/kg, Group 2 subcutaneous 5 mg/kg, 2.0 hr, read-out: aqueous humor Conc., individual eyes (OD, OS)
  concentration at 2 h: 0.581 ng/mL
New Zealand White, rabbit, aqueous humor, topical, 1.2 mg/eye, Group 1 topical ocular 1.2 mg/eye, 0.5 hr, read-out: aqueous humor Average Conc.
  concentration at 0.5 hr: 45.8 ng/g
New Zealand White, rabbit, aqueous humor, topical, 1.2 mg/eye, Group 1 topical ocular 1.2 mg/eye, 1.0 hr, read-out: aqueous humor Average Conc.
  concentration at 1 hr: 15 ng/g
New Zealand White, rabbit, aqueous humor, topical, 1.2 mg/eye, Group 1 topical ocular 1.2 mg/eye, 1.0 hr, read-out: aqueous humor Conc., individual eyes (OD, OS)
  concentration at 1 hr: 4.03 ng/mL
New Zealand White, rabbit, aqueous humor, topical, 1.2 mg/eye, Group 1 topical ocular 1.2 mg/eye, 2.0 hr, read-out: aqueous humor Average Conc.
  concentration at 2 h: 31.6 ng/g
